Target: T1, MAGL (Homo sapiens, UniProt Q99685)
T1 sequence (Q99685 1-303): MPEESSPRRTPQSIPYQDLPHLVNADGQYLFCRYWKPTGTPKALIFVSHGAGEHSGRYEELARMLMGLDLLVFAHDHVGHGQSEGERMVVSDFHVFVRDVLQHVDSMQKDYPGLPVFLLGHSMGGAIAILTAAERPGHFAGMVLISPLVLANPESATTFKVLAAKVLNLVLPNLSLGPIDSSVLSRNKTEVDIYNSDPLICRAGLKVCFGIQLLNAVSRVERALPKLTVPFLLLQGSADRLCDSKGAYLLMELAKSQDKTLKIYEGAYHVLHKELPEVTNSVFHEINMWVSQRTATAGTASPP
Test: 2-AG assay (MAGL inhibitory activity, hydrolysis of 2-arachidonoylglycerol to arachidonic acid followed by mass spectrometry)
Type: biochemical
Conditions: 8 μM 2-arachidonoylglycerol, 15 min pre-incubation, 30 min incubation at RT, RapidFire MS readout
Outline: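 Human MAGL ([…] final) pre-incubated 15 min at RT with compound in 50 mM TRIS, 1 mM EDTA, 0.01% Tween-20, 2.5% DMSO; 8 μM 2-AG then added for 30 min at RT. Acetonitrile quench with d8-arachidonic acid; arachidonic acid measured by RapidFire SPE–MS/MS, activity from arachidonic acid/d8 ratio.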

SMILES	IC50 [nM]
Cc1noc(C)c1S(=O)(=O)N1CC2(CN(C(=O)N3CC4(CC(n5cnc(C6CC6)n5)C4)C3)C2)C1 [Example 281, [6-(3-cyclopropyl-1,2,4-triazol-1-yl)-2-azaspiro[3.3]heptan-2-yl]-[2-(3,5-dimethylisoxazol-4-yl)sulfonyl-2,6-diazaspiro[3.3]heptan-6-yl]methanone]	41.3
COc1ccc(S(=O)(=O)N2CC3(CN(C(=O)N4CC5(CC(n6cnc(C7CC7)n6)C5)C4)C3)C2)cc1 [Example 282, [6-(3-cyclopropyl-1,2,4-triazol-1-yl)-2-azaspiro[3.3]heptan-2-yl]-[2-(4-methoxyphenyl)sulfonyl-2,6-diazaspiro[3.3]heptan-6-yl]methanone]	44.6
O=C(N1CC(Oc2ccnc(C(F)(F)F)n2)C1)N1CC2(CC(n3cnc(C4CC4)n3)C2)C1 [Example 283, [6-(3-cyclopropyl-1,2,4-triazol-1-yl)-2-azaspiro[3.3]heptan-2-yl]-[3-[2-(trifluoromethyl)pyrimidin-4-yl]oxyazetidin-1-yl]methanone]	48.3
O=C(N1CC2(CC(n3cnc(C4CC4)n3)C2)C1)N1CC2(C1)CN(S(=O)(=O)N1CCCC1)C2 [Example 284, [6-(3-cyclopropyl-1,2,4-triazol-1-yl)-2-azaspiro[3.3]heptan-2-yl]-(2-pyrrolidin-1-ylsulfonyl-2,6-diazaspiro[3.3]heptan-6-yl)methanone]	49.9
O=C(N1CC(Oc2cc(C(F)(F)F)ncn2)C1)N1CC2(CC(n3cnc(C4CC4)n3)C2)C1 [Example 285, [6-(3-cyclopropyl-1,2,4-triazol-1-yl)-2-azaspiro[3.3]heptan-2-yl]-[3-[6-(trifluoromethyl)pyrimidin-4-yl]oxyazetidin-1-yl]methanone]	54.3
O=C(N1CC2(CC(n3cnc(C4CC4)n3)C2)C1)N1CC2(C1)CN(S(=O)(=O)c1cccc(Cl)n1)C2 [Example 286, [2-[(6-chloro-2-pyridyl)sulfonyl]-2,6-diazaspiro[3.3]heptan-6-yl]-[6-(3-cyclopropyl-1,2,4-triazol-1-yl)-2-azaspiro[3.3]heptan-2-yl]methanone]	58.6
N#Cc1cccc(S(=O)(=O)N2CC3(CN(C(=O)N4CC5(CC(n6cnc(C7CC7)n6)C5)C4)C3)C2)c1 [Example 287, 3-[[6-[6-(3-cyclopropyl-1,2,4-triazol-1-yl)-2-azaspiro[3.3]heptane-2-carbonyl]-2,6-diazaspiro[3.3]heptan-2-yl]sulfonyl]benzonitrile]	59.4
CC1(S(=O)(=O)N2CC3(CN(C(=O)N4CC5(CC(n6cnc(C7CC7)n6)C5)C4)C3)C2)CC1 [Example 288, [6-(3-cyclopropyl-1,2,4-triazol-1-yl)-2-azaspiro[3.3]heptan-2-yl]-[2-(1-methylcyclopropyl)sulfonyl-2,6-diazaspiro[3.3]heptan-6-yl]methanone]	62
O=C(N1CC(c2nnc(-c3ccc(F)cc3F)[nH]2)C1)N1CC2(CC(n3cnc(C4CC4)n3)C2)C1 [Example 289, [6-(3-cyclopropyl-1,2,4-triazol-1-yl)-2-azaspiro[3.3]heptan-2-yl]-[3-[5-(2,4-difluorophenyl)-4H-1,2,4-triazol-3-yl]azetidin-1-yl]methanone]	62.1
COc1cc(F)ccc1S(=O)(=O)N1CC2(CN(C(=O)N3CC4(CC(n5cnc(C6CC6)n5)C4)C3)C2)C1 [Example 290, [6-(3-cyclopropyl-1,2,4-triazol-1-yl)-2-azaspiro[3.3]heptan-2-yl]-[2-(4-fluoro-2-methoxy-phenyl)sulfonyl-2,6-diazaspiro[3.3]heptan-6-yl]methanone]	70.7
O=C(c1ccc(F)cc1Cl)N1CC2(C1)CN(C(=O)N1CC3(CC(n4cnc(C5CC5)n4)C3)C1)C2 [Example 292, (2-chloro-4-fluoro-phenyl)-[2-[6-(3-cyclopropyl-1,2,4-triazol-1-yl)-2-azaspiro[3.3]heptane-2-carbonyl]-2,6-diazaspiro[3.3]heptan-6-yl]methanone]	77.1
NS(=O)(=O)c1ccc(C2CN(C(=O)N3CC4(CC(n5cnc(C6CC6)n5)C4)C3)C2)cc1 [Example 293, 4-[1-[6-(3-cyclopropyl-1,2,4-triazol-1-yl)-2-azaspiro[3.3]heptane-2-carbonyl]azetidin-3-yl]benzenesulfonamide]	78
NC(=O)c1ccc(F)c(S(=O)(=O)N2CC3(CN(C(=O)N4CC5(CC(n6cnc(C7CC7)n6)C5)C4)C3)C2)c1 [Example 294]	81.6
CC(=O)Nc1ccc(S(=O)(=O)N2CC3(CN(C(=O)N4CC5(CC(n6cnc(C7CC7)n6)C5)C4)C3)C2)cc1 [Example 295, N-[4-[[6-[6-(3-cyclopropyl-1,2,4-triazol-1-yl)-2-azaspiro[3.3]heptane-2-carbonyl]-2,6-diazaspiro[3.3]heptan-2-yl]sulfonyl]phenyl]acetamide]	89
O=C(N1CC2(CC(n3cnc(C4CC4)n3)C2)C1)N1CC2(C1)CN(S(=O)(=O)CC1CC1)C2 [Example 296, [2-(cyclopropylmethylsulfonyl)-2,6-diazaspiro[3.3]heptan-6-yl]-[6-(3-cyclopropyl-1,2,4-triazol-1-yl)-2-azaspiro[3.3]heptan-2-yl]methanone]	91.5
O=C(N1CC2(CC(n3cnc(C4CC4)n3)C2)C1)N1CC2(C1)CN(S(=O)(=O)c1cccnc1C(F)(F)F)C2 [Example 297, [6-(3-cyclopropyl-1,2,4-triazol-1-yl)-2-azaspiro[3.3]heptan-2-yl]-[2-[[2-(trifluoromethyl)-3-pyridyl]sulfonyl]-2,6-diazaspiro[3.3]heptan-6-yl]methanone]	94.4
NC(=O)c1ccc(S(=O)(=O)N2CC3(CN(C(=O)N4CC5(CC(n6cnc(C7CC7)n6)C5)C4)C3)C2)cc1 [Example 298, 4-[[6-[6-(3-cyclopropyl-1,2,4-triazol-1-yl)-2-azaspiro[3.3]heptane-2-carbonyl]-2,6-diazaspiro[3.3]heptan-2-yl]sulfonyl]benzamide]	95.5

Stronger by IC50, values ahead:

IC50 [nM]	SMILES
32.7	O=C(N1CC(Oc2ccc(C(F)(F)F)nc2)C1)N1CC2(CC(n3cnc(C4CC4)n3)C2)C1 [Example 270, (6-(3-cyclopropyl-1H-1,2,4-triazol-1-yl)-2-azaspiro[3.3]heptan-2-yl)(3-((6-(trifluoromethyl)pyridin-3-yl)oxy)azetidin-1-yl)methanone]
33.8	O=C(N1CCC(CNS(=O)(=O)c2ccc(Cl)cc2)CC1)N1CC2(CC(n3cnc(C4CC4)n3)C2)C1 [Example 271]
34.3	O=C(N1CC2(CC(n3cnc(C4CC4)n3)C2)C1)N1CC2(C1)CN(S(=O)(=O)CCc1ccc(F)cc1)C2 [Example 272, [6-(3-cyclopropyl-1,2,4-triazol-1-yl)-2-azaspiro[3.3]heptan-2-yl]-[2-[2-(4-fluorophenyl)ethylsulfonyl]-2,6-diazaspiro[3.3]heptan-6-yl]methanone]
34.4	O=C(N1CC2(CC(n3cnc(C4CC4)n3)C2)C1)N1CC2(C1)CN(S(=O)(=O)c1ccc(F)c(F)c1)C2 [Example 273, [6-(3-cyclopropyl-1,2,4-triazol-1-yl)-2-azaspiro[3.3]heptan-2-yl]-[2-(3,4-difluorophenyl)sulfonyl-2,6-diazaspiro[3.3]heptan-6-yl]methanone]
34.8	O=C(N1CC(Oc2ccnc(C3CC3)n2)C1)N1CC2(CC(n3cnc(C4CC4)n3)C2)C1 [Example 274, [3-(2-cyclopropylpyrimidin-4-yl)oxyazetidin-1-yl]-[6-(3-cyclopropyl-1,2,4-triazol-1-yl)-2-azaspiro[3.3]heptan-2-yl]methanone]
35.3	O=C(c1ccc(F)cc1C(F)(F)F)N1CC2(C1)CN(C(=O)N1CC3(CC(n4cnc(C5CC5)n4)C3)C1)C2 [Example 275, [2-[6-(3-cyclopropyl-1,2,4-triazol-1-yl)-2-azaspiro[3.3]heptane-2-carbonyl]-2,6-diazaspiro[3.3]heptan-6-yl]-[4-fluoro-2-(trifluoromethyl)phenyl] methanone]
35.7	O=C(N1CC(CNS(=O)(=O)c2ccc(C(F)(F)F)cc2)C1)N1CC2(CC(n3cnc(C4CC4)n3)C2)C1 [Example 276, N-[[1-[6-(3-cyclopropyl-1,2,4-triazol-1-yl)-2-azaspiro[3.3]heptane-2-carbonyl]azetidin-3-yl]methyl]-4-(trifluoromethyl)benzene-sulfonamide]
37.2	O=C(N1CC2(CC(NC(=O)C3(C(F)(F)F)CC3)C2)C1)N1CC2(CC(n3cnc(C4CC4)n3)C2)C1 [Example 277, N-[2-[6-(3-cyclopropyl-1,2,4-triazol-1-yl)-2-azaspiro[3.3]heptane-2-carbonyl]-2-azaspiro[3.3]heptan-6-yl]-1-(trifluoromethyl) cyclo-propanecarboxamide]
37.3	O=C(N1CC2(CC(n3cnc(C4CC4)n3)C2)C1)N1CC2(C1)CN(S(=O)(=O)c1cnccc1Cl)C2 [Example 278, [2-[(4-chloro-3-pyridyl)sulfonyl]-2,6-diazaspiro[3.3]heptan-6-yl]-[6-(3-cyclopropyl-1,2,4-triazol-1-yl)-2-azaspiro[3.3]heptan-2-yl]methanone]
38	CC(C)(C(=O)O)c1cccc(OC2CN(C(=O)N3CC4(CC(n5cnc(C6CC6)n5)C4)C3)C2)c1 [Example 279, 2-[3-[1-[6-(3-cyclopropyl-1,2,4-triazol-1-yl)-2-azaspiro[3.3]heptane-2-carbonyl]azetidin-3-yl]oxyphenyl]-2-methyl-propanoic acid]
39.4	O=C(N1CC(Oc2ccc(C3CC3)nn2)C1)N1CC2(CC(n3cnc(C4CC4)n3)C2)C1 [Example 280, [3-(6-cyclopropylpyridazin-3-yl)oxyazetidin-1-yl]-[6-(3-cyclopropyl-1,2,4-triazol-1-yl)-2-azaspiro[3.3]heptan-2-yl]methanone]

From US20240199587A1, “HETEROCYCLIC COMPOUNDS” (Hoffmann-La Roche Inc., priority 2021, published 2024)
